{"source": "patent US9426996B2", "about": "“Use of benzoxaboroles as volatile antimicrobial agents on meats, plants, or plant parts” (AgroFresh Inc., priority 2013, dated 2016)", "key": {"Penicillium expansum": {"tested_on": "Penicillium expansum", "experiment": "in vivo volatile bioassay using apple", "settings": "50 mg/L; for Sporulation (mm) / Rot (mm): apples", "experimental": "In order to assess the in vivo activity of volatile antimicrobial Compound A in fruit, a volatile bioassay is developed using apple. Two apples are placed inside a PET clamshell. Three fresh wounds per apple are inoculated with 30 μL of 1×10^6 per mL Penicillium expansum spore suspension. The clamshells are placed inside a 10.8-cup SnapWare airtight container (Model #109842). A 42.5 mm Whatman #1 filter disk (Cat. No. 1001-042) is placed on a watch glass. Compound A is dissolved in acetone and added to the disks in a manner to produce a final headspace concentration of 50 mg/L. The acetone is permitted to evaporate for five minutes. The containers are then closed with the lids, and placed for three days at 21° C. After storage, fruits are evaluated for disease incidence (mm diameter of the rot) and pathogen sporulation (mm diameter) on the surface of the fruits for an additional three days at 21° C., with results summarized in Table 19."}, "Botrytis cinerea": {"tested_on": "Botrytis cinerea", "experiment": "white roses with natural inoculum, volatile treatment", "type": "in vivo", "design": "key to Severity (0-4): 0 = No disease; 1 = Browning and small lesions on the sepals or petals; 2 = Browning, petals covered with fungal spores; 3 = Browning, petals covered with fungal spores, some petal drop; 4 = Browning, petals covered with fungal spores, some flowers aborted", "experimental": "A similar test like the one described above is also performed on white roses with natural inoculum. Five white roses are placed in an 800 mL jar containing 200 mL of a common commercial flower preservative.\nThree jars are then placed in a 117 L Rubbermaid storage box (Cat #2244). Two small fans are place in opposite ends of the container to assist with the volatile distribution of compound A. The tub is closed tightly, and then Compound A is diluted in acetone, and then pipetted onto a 1.5 inch×1 inch cotton strip. The acetone is allowed to evaporate for five minutes. Compound A is then introduced to the containers by a sublimation device (copper tube heated to 200° C. with fan flow at 0.5 L/min) to achieve a final headspace concentration of 0.04, 0.2, 1 mg/L, through a ½″ side port that is sealed immediately after the application. Alternatively, Compound A is pipetted onto a 42.5 mm Whatman #1 filter disk (Cat. No. 1001-042), supported by a watch glass, where the acetone is allowed to evaporate for five minutes prior to sealing the container. The flowers are incubated for three days at 21° C. After treatment, flowers are evaluated for an additional two days for disease incidence and severity of the flower petals. Applying a treatment at 1 mg/L through sublimation results in 0% incidence. Rose petals after treatment with Compound A have no disease incidence, retained white color, and the roses had no petal drop."}, "[1]": {"settings": "0.04 mg/L, Applied through sublimation"}, "[2]": {"settings": "0.04 mg/L, Volatilized from Whatman Filter"}, "[3]": {"settings": "0.2 mg/L, Applied through sublimation"}, "[4]": {"settings": "0.2 mg/L, Volatilized from Whatman Filter"}, "[5]": {"settings": "1 mg/L, Applied through sublimation"}, "[6]": {"settings": "1 mg/L, Volatilized from Whatman Filter"}}, "data": [{"smiles": "OB1OCc2cc(F)ccc21", "note": "[Compound A]", "values": [{"measurement": "in vivo volatile antimicrobial control of P. expansum mold of apple", "setting": "Penicillium expansum; up to 3 days after treatment", "result": 100, "unit": "%"}, {"measurement": "Sporulation (mm)", "setting": "Penicillium expansum; Day 0", "result": 0, "unit": "mm"}, {"measurement": "Rot (mm)", "setting": "Penicillium expansum; Day 1", "result": 0, "unit": "mm"}, {"measurement": "Sporulation (mm)", "setting": "Penicillium expansum; Day 1", "result": 0, "unit": "mm"}, {"measurement": "Rot (mm)", "setting": "Penicillium expansum; Day 2", "result": 0, "unit": "mm"}, {"measurement": "Sporulation (mm)", "setting": "Penicillium expansum; Day 2", "result": 0, "unit": "mm"}, {"measurement": "Rot (mm)", "setting": "Penicillium expansum; Day 3", "result": 0, "unit": "mm"}, {"measurement": "Sporulation (mm)", "setting": "Penicillium expansum; Day 3", "result": 0, "unit": "mm"}, {"measurement": "Incidence (%)", "setting": "Botrytis cinerea; [1]", "result": 46.7, "unit": "%"}, {"measurement": "Severity (0-4)", "setting": "Botrytis cinerea; [1]", "result": 1.7}, {"measurement": "Incidence (%)", "setting": "Botrytis cinerea; [2]", "result": 46.7, "unit": "%"}, {"measurement": "Severity (0-4)", "setting": "Botrytis cinerea; [2]", "result": 1.1}, {"measurement": "Incidence (%)", "setting": "Botrytis cinerea; [3]", "result": 13.3, "unit": "%"}, {"measurement": "Severity (0-4)", "setting": "Botrytis cinerea; [3]", "result": 0.5}, {"measurement": "Incidence (%)", "setting": "Botrytis cinerea; [4]", "result": 66.7, "unit": "%"}, {"measurement": "Severity (0-4)", "setting": "Botrytis cinerea; [4]", "result": 1.8}, {"measurement": "Incidence (%)", "setting": "Botrytis cinerea; [5]", "result": 0, "unit": "%"}, {"measurement": "Severity (0-4)", "setting": "Botrytis cinerea; [5]", "result": 0}, {"measurement": "Incidence (%)", "setting": "Botrytis cinerea; [6]", "result": 53.3, "unit": "%"}, {"measurement": "Severity (0-4)", "setting": "Botrytis cinerea; [6]", "result": 1.6}]}]}
